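Values below derive from 48-hour exposures of cells grown in 96-well plates, with endpoints linearly interpolated between the two concentrations bracketing the appropriate inhibition level. Abbreviation: GI50, concentration required for 50% inhibition of growth. TGI: concentration producing complete growth inhibition.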
What was measured:
Assay in all cases: NCI tumour cell line growth inhibition, 48 h
SN12C renal = tested on: SN12C renal
M14 melanoma = tested on: M14 melanoma
NCI-H460 lung = tested on: NCI-H460 lung
SF-539 CNS = tested on: SF-539 CNS
UACC-62 melanoma = tested on: UACC-62 melanoma
OVCAR-5 ovarian = tested on: OVCAR-5 ovarian
SNB-19 CNS = tested on: SNB-19 CNS
HOP-92 NSCLC = tested on: HOP-92 NSCLC
NCI-H522 lung = tested on: NCI-H522 lung
KM12 colon = tested on: KM12 colon
IGROV1 ovarian = tested on: IGROV1 ovarian
HOP-62 NSCLC = tested on: HOP-62 NSCLC
SW-620 colon = tested on: SW-620 colon
DMS 273 small cell lung = tested on: DMS 273 small cell lung
OVCAR-3 ovarian = tested on: OVCAR-3 ovarian
U251 CNS = tested on: U251 CNS
NCI-H226 lung = tested on: NCI-H226 lung
SK-MEL-5 melanoma = tested on: SK-MEL-5 melanoma
K-562 leukemia = tested on: K-562 leukemia
UACC-257 melanoma = tested on: UACC-257 melanoma
SK-MEL-2 melanoma = tested on: SK-MEL-2 melanoma
EKVX NSCLC = tested on: EKVX NSCLC
CCRF-CEM leukemia = tested on: CCRF-CEM leukemia
MOLT-4 leukemia = tested on: MOLT-4 leukemia
SNB-78 CNS = tested on: SNB-78 CNS
HCC-2998 colon = tested on: HCC-2998 colon
CAKI-1 renal = tested on: CAKI-1 renal
MALME-3M melanoma = tested on: MALME-3M melanoma
LOX IMVI melanoma = tested on: LOX IMVI melanoma
OVCAR-4 ovarian = tested on: OVCAR-4 ovarian
OVCAR-8 ovarian = tested on: OVCAR-8 ovarian
ACHN renal = tested on: ACHN renal
UO-31 renal = tested on: UO-31 renal
TK-10 renal = tested on: TK-10 renal
SF-295 CNS = tested on: SF-295 CNS
DLD-1 colon = tested on: DLD-1 colon
786-0 renal = tested on: 786-0 renal
KM20L2 colon = tested on: KM20L2 colon
SK-OV-3 ovarian = tested on: SK-OV-3 ovarian
HCT-15 colon = tested on: HCT-15 colon
RXF 393 renal = tested on: RXF 393 renal
HL-60(TB) leukemia = tested on: HL-60(TB) leukemia
A549 NSCLC = tested on: A549 NSCLC
NCI-H23 lung = tested on: NCI-H23 lung
A498 renal = tested on: A498 renal
HCT-116 colon = tested on: HCT-116 colon
HT29 colon = tested on: HT29 colon
RPMI-8226 leukemia = tested on: RPMI-8226 leukemia
HS 578T breast = tested on: HS 578T breast
MDA-MB-435 = tested on: MDA-MB-435
T-47D breast = tested on: T-47D breast
MDA-N = tested on: MDA-N
DU-145 prostate = tested on: DU-145 prostate
MCF7 breast = tested on: MCF7 breast
BT-549 breast = tested on: BT-549 breast
SNB-75 CNS = tested on: SNB-75 CNS
PC-3 prostate = tested on: PC-3 prostate
SF-268 CNS = tested on: SF-268 CNS
MDA-MB-231 breast = tested on: MDA-MB-231 breast
SR leukemia = tested on: SR leukemia
COLO 205 colon = tested on: COLO 205 colon
NCI/ADR-RES ovarian = tested on: NCI/ADR-RES ovarian
SK-MEL-28 melanoma = tested on: SK-MEL-28 melanoma

## O=c1cccccc1[O-].O=c1cccccc1[O-].O=c1cccccc1[O-].[Sm+3]
SN12C renal
  GI50: 26.8 µM
  TGI: > 100 µM
M14 melanoma
  TGI: > 100 µM
NCI-H460 lung
  TGI: > 100 µM
SF-539 CNS
  GI50: 29.1 µM
  TGI: > 100 µM
UACC-62 melanoma
  TGI: > 100 µM
OVCAR-5 ovarian
  TGI: > 100 µM
SNB-19 CNS
  TGI: > 100 µM
HOP-92 NSCLC
  TGI: > 100 µM
NCI-H522 lung
  TGI: > 100 µM
KM12 colon
  TGI: > 100 µM
IGROV1 ovarian
  TGI: > 100 µM
HOP-62 NSCLC
  GI50: 37.1 µM
  TGI: > 100 µM
SW-620 colon
  TGI: > 100 µM
DMS 273 small cell lung
  GI50: 11.3 µM
  TGI: > 100 µM
OVCAR-3 ovarian
  TGI: 47 µM
U251 CNS
  GI50: 13.8 µM
  TGI: > 100 µM
NCI-H226 lung
  TGI: > 100 µM
SK-MEL-5 melanoma
  TGI: 89.9 µM
K-562 leukemia
  TGI: > 100 µM
UACC-257 melanoma
  TGI: > 100 µM
SK-MEL-2 melanoma
  TGI: > 100 µM
EKVX NSCLC
  TGI: > 100 µM
CCRF-CEM leukemia
  TGI: > 100 µM
MOLT-4 leukemia
  TGI: > 100 µM
SNB-78 CNS
  GI50: 30.6 µM
  TGI: > 100 µM
HCC-2998 colon
  TGI: > 100 µM
CAKI-1 renal
  TGI: > 100 µM
MALME-3M melanoma
  TGI: > 100 µM
LOX IMVI melanoma
  TGI: > 100 µM
OVCAR-4 ovarian
  TGI: > 100 µM
OVCAR-8 ovarian
  TGI: > 100 µM
ACHN renal
  TGI: > 100 µM
UO-31 renal
  TGI: > 100 µM
TK-10 renal
  TGI: > 100 µM
SF-295 CNS
  TGI: > 100 µM
DLD-1 colon
  GI50: 18 µM
  TGI: > 100 µM
786-0 renal
  TGI: > 100 µM
KM20L2 colon
  GI50: 15.4 µM
  TGI: > 100 µM
SK-OV-3 ovarian
  TGI: > 100 µM
HCT-15 colon
  TGI: > 100 µM
RXF 393 renal
  TGI: 53.6 µM
HL-60(TB) leukemia
  TGI: > 100 µM
A549 NSCLC
  TGI: > 100 µM
NCI-H23 lung
  TGI: 71.5 µM
A498 renal
  GI50: 87.5 µM
  TGI: > 100 µM
HCT-116 colon
  TGI: 94.5 µM
HT29 colon
  TGI: > 100 µM
RPMI-8226 leukemia
  TGI: > 100 µM

## Cc1cc(C)nc(NS(=O)(=O)c2ccc(Nc3c4ccccc4nc4ccc(C(=O)Nc5ccc(S(=O)(=O)N=C(N)N)cc5)cc34)cc2)n1
HS 578T breast
  TGI: > 100 µM
SN12C renal
  TGI: > 100 µM
MDA-MB-435
  TGI: > 100 µM
M14 melanoma
  TGI: > 100 µM
NCI-H460 lung
  TGI: > 100 µM
SF-539 CNS
  TGI: > 100 µM
UACC-62 melanoma
  TGI: > 100 µM
OVCAR-5 ovarian
  TGI: > 100 µM
T-47D breast
  TGI: > 100 µM
MDA-N
  TGI: > 100 µM
SNB-19 CNS
  TGI: > 100 µM
HOP-92 NSCLC
  TGI: > 100 µM
DU-145 prostate
  TGI: > 100 µM
NCI-H522 lung
  TGI: > 100 µM
KM12 colon
  TGI: > 100 µM
IGROV1 ovarian
  TGI: > 100 µM
HOP-62 NSCLC
  TGI: > 100 µM
SW-620 colon
  TGI: > 100 µM
OVCAR-3 ovarian
  TGI: > 100 µM
U251 CNS
  TGI: > 100 µM
NCI-H226 lung
  TGI: > 100 µM
SK-MEL-5 melanoma
  TGI: > 100 µM
K-562 leukemia
  TGI: 62.3 µM
MCF7 breast
  TGI: 43.9 µM
UACC-257 melanoma
  TGI: > 100 µM
SK-MEL-2 melanoma
  TGI: > 100 µM
EKVX NSCLC
  TGI: > 100 µM
CCRF-CEM leukemia
  TGI: > 100 µM
MOLT-4 leukemia
  TGI: > 100 µM
BT-549 breast
  TGI: 95.2 µM
HCC-2998 colon
  TGI: > 100 µM
CAKI-1 renal
  TGI: > 100 µM
MALME-3M melanoma
  TGI: > 100 µM
SNB-75 CNS
  TGI: > 100 µM
LOX IMVI melanoma
  TGI: 34.4 µM
PC-3 prostate
  TGI: > 100 µM
OVCAR-4 ovarian
  TGI: > 100 µM
SF-268 CNS
  TGI: > 100 µM
OVCAR-8 ovarian
  TGI: > 100 µM
ACHN renal
  TGI: > 100 µM
UO-31 renal
  TGI: > 100 µM
TK-10 renal
  TGI: > 100 µM
SF-295 CNS
  TGI: > 100 µM
786-0 renal
  TGI: 53 µM
SK-OV-3 ovarian
  TGI: > 100 µM
MDA-MB-231 breast
  TGI: > 100 µM
HCT-15 colon
  TGI: > 100 µM
RXF 393 renal
  TGI: > 100 µM
SR leukemia
  TGI: > 100 µM
HL-60(TB) leukemia
  TGI: > 100 µM
A549 NSCLC
  TGI: > 100 µM
NCI-H23 lung
  TGI: > 100 µM
A498 renal
  TGI: > 100 µM
COLO 205 colon
  TGI: > 100 µM
HCT-116 colon
  TGI: > 100 µM
HT29 colon
  TGI: > 100 µM
RPMI-8226 leukemia
  TGI: > 100 µM
NCI/ADR-RES ovarian
  TGI: > 100 µM
SK-MEL-28 melanoma
  TGI: > 100 µM

Reference: PubChem BioAssay (NCI)
